Experimental data as given in patent publication EP0570196B1, “Oxime derivatives” (ZENECA LIMITED, priority 1992, dated 1993).

What was measured:
5-LO [1] = experiment: Test c): in vivo zymosan-induced LTB₄ liberation in a subcutaneous air pouch of male rats; settings: rat air pouch, 3 hours
5-LO [2] = molecular target: T1, 5-LO (Homo sapiens, UniProt P09917); experiment: Test a): in vitro heparinised human blood challenged with calcium ionophore A23187, radioimmunoassay of LTB₄; assay type: cell-based; settings: heparinised human blood, A23187 challenge; read-out: IC₅₀ against LTB₄ in test a)
T1 construct: incubating a test compound with heparinised human blood, prior to challenge with the calcium ionophore A23187; endogenous in cells; host or cells: heparinised human whole blood (blood cells)
T1 sequence (P09917 1-674): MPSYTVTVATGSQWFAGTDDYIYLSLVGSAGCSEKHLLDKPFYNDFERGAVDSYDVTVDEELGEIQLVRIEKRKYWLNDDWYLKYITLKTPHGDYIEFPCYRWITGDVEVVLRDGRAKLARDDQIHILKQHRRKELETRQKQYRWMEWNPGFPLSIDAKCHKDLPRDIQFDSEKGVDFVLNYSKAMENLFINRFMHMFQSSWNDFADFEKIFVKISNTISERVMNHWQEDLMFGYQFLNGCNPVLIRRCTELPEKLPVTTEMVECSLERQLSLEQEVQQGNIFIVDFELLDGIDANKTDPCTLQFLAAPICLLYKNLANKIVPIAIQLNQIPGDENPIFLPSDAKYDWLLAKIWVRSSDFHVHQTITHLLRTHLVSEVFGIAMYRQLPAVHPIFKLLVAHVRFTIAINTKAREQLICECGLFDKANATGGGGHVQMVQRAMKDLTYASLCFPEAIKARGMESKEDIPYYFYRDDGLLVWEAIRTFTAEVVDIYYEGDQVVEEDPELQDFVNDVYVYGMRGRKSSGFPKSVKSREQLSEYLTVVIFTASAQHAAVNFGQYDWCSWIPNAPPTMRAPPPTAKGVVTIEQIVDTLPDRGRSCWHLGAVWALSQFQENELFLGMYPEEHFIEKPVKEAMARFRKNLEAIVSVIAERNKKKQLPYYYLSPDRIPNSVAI
Excerpt: As stated previously, the compounds of the formula I are inhibitors of the enzyme 5-LO. […] J. Pharmacol., 1985, 84, 34P) which involve the use of a protein-LTB₄ conjugate produced using the procedure of Young et alia (Prostaglandins, 1983, 26(4), 605-613). The effects of a test compound on the enzyme cyclooxygenase (which is involved in the alternative metabolic pathway for arachidonic acid and gives rise to prostaglandins, thromboxanes and related metabolites) may be measured at the same time using the specific radioimmunoassay for thromboxane B₂(TxB₂) described by Carey and Forder (see above). This test provides an indication of the effects of a test compound against 5-LO and also cyclooxygenase in the presence of blood cells and proteins. It permits the selectivity of the inhibitory effect on 5-LO or cyclooxygenase to be assessed. • b) An ex vivo assay system, which is a variation of test a) above, involving administration to a group of rats of a test compound (usually orally as the suspension produced when a solution of the test compound in dimethylsulphoxide is added to carboxymethylcellulose), blood collection, heparinisation, challenge with A23187 and radioimmunoassay of LTB₄ and TxB₂. […]

COC1(c2cc(F)cc(Sc3ccc(CON=C(C)C)cc3)c2)CCOCC1 [Example 1, acetone 0-{4-[5-fluoro-3-(4-methoxytetrahydropyran-4-yl)phenylthio]benzyl}oxime]
oral ED₅₀ versus LTB₄ in test c) (5-LO [1]): approximately 1 mg/kg
IC50 (5-LO [2]): 0.15 µM

COC1(c2cc(F)cc(Sc3ccc(C(C)ON=C(C)C)cc3)c2)CCOCC1 (stereo not drawn) [Example 2, acetone 0-{4-[5-fluoro-3-(4-methoxytetrahydropyran-4-yl)phenylthio)-α-methylbenzyl}oxime]
oral ED₅₀ versus LTB₄ in test c) (5-LO [1]): approximately 1.5 mg/kg
IC50 (5-LO [2]): 0.09 µM
